Format: in vivo, Sprague–Dawley (SD) rats
Settings: rat plasma, single oral gavage of 10 mL/kg ABS, n = 6
Method: All rats underwent an acclimation period of a week and overnight fasting with free access to water only. Rats were randomly selected and administered the ABS (n = 6, biological replicates). Each rat was administered with a single ABS oral gavage dose of 10 mL/kg. Blood samples (approximately 150 μL) were collected from the orbital venous plexus using heparinized tubes at predefined time points (0, 0.033, 0.083, 0.167, 0.25, 0.5, 0.75, 1, 2, 4, 6, 8, 10, 12, 24, 36, 48, and 60 h) post-administration. The technical personnel were proficiently trained in performing orbital venous plexus blood draws, employing a technique designed to minimize discomfort to the animals. All rats received an intragastric administration of 1 mL saline at 6 h post-dosing, after which they were provided with unrestricted access to food and water for the remainder of the experimental period. […]
Chromatographic separation was performed on a Thermo BDS Hypersil C18 column (100 × 4.6 mm, 3 µm) with linear gradient elution at a flow rate of 0.7 mL/min using methanol and water both containing 0.1% acetic acid as the mobile phases A and B, respectively. […] The quantification analysis was conducted under multiple reaction monitoring mode with argon collision gas pressure set at 0.2 Pa for collision-induced dissociation. […]

Tmax [min]	SMILES	t1/2 [h]
	Cc1cc(O)c2c(c1)C(=O)c1cc(O)cc(O)c1C2=O [EM, emodin]	4.63 ± 1.53
12 ± 1.8	O=C1C[C@@H](c2ccc(O[C@@H]3O[C@H](CO)[C@@H](O)[C@H](O)[C@H]3O)cc2)Oc2cc(O)ccc21 [LI, liquiritin]	

From paper PMC13028611, “Hepatotoxicity Assessment of Anshenbunao Syrup by Multi-Component Quantification In Vivo/In Vitro and Cell Biological Evaluations” (Pharmaceuticals, 2026)
